According to patent US20230134986A1, “GLUCOSE TRIPTOLIDE CONJUGATES AND USES THEREOF” (The Johns Hopkins University, priority 2020, published 2023):

How the values were obtained:
[1] = test system: RPB1 (RNAPII) in PC3 cells; assay: RPB1 degradation in PC3 cells under hypoxia, immunocytochemistry and western blot; format: cell-based, human; conditions: PC3, hypoxic but not normoxic conditions, 3 µM compound 1
Experimental: Western blot analysis. Whole cell lysates were prepared by adding lysis buffer [4% SDS, 20% glycerol, 10% 2-mercaptoethanol, 0.004% bromophenol blue, 0.125 M Tris-HCl (pH 6.8)] to the cell pellets for 30 minutes in ice followed by centrifugation at 12,000×g for 10 minutes then boiling for 5 minutes. For isolation of cytosolic and mitochondrial fractions of cytochrome C, cell pellets were resuspended in CLAMI buffer (250 mM sucrose, 70 mM KCl, […] digitonin in 1×PBS, protease inhibitor cocktail (1 tablet/10 ml CLAMI buffer)) then incubated on ice for 5 minutes. After centrifugation at 12,000×g for 5 minutes at 4° C., supernatant (cytoplasmic fraction) was collected and the pellet resuspended in lysis buffer as described above. Proteins were then separated by SDS-PAGE and transferred to nitrocellulose membranes (Bio-Rad). […] Antibody-protein complexes were detected using enhanced chemiluminescence (ECL) immunoblotting detection reagent (EMD Millipore).
Immunocytochemistry and cytochemistry. […] Glucose uptake was monitored by incubating cells in 200 μM 2-NBDG (ThermoFisher) for 6 hours prior to fixation. Fluorescence was observed under the Nikon Eclipse TE200 Inverted microscope (Nikon Instruments Inc., Melville, N.Y., USA). […] Rpb1 levels were measured using the MEASURE feature of ImageJ where all the background signals were subtracted from the intergrated density of nuclear Rpb1.

HeLa = HeLa proliferation under hypoxia ([3H]-thymidine incorporation); format: cell-based, human; conditions: 1% O2, 48 h post treatment
DLD-1 WT cells = assay: DLD-1 WT proliferation under hypoxia or normoxia; format: cell-based; conditions: Homo sapiens; WT DLD-1 cells, hypoxic conditions (1% oxygen)

In the case of `CC(C)[C@]12O[C@H]1[C@@H]1O[C@]13[C@]1(O[C@H]1C[C@H]1C4=C(CC[C@@]13C)C(=O)OC4)[C@@H]2OC(=O)CCCO[C@@H]1OC(CO)[C@@H](O)C(O)C1O` (stereo in doubt) [Compound 1], the “onset of RNAPII (RPB1) degradation” value [1] is reported as “observed as early as 6 h”, the “effect of hypoxia on anti-proliferative effect” value (HeLa) is reported as “enhances the anti-proliferative effect” and the IC50 (DLD-1 WT cells) is reported as 1300 nM.
